Legend:
Format in all cases: physicochemical
[1] = Solubility of compounds in toluene
Method: The solubility of the compounds in the toluene were determined as follows: • 1. 1000 mg of toluene solution was placed in the transparent glass sample bottle. • 2. A certain mass of the compound was added into the toluene, and oscillated until completely dissolved. • 3. After the compound was completely dissolved, a certain mass of the compound was further added into the toluene, and oscillated. • 4. The above steps were repeated until the compound wasn't dissolved any more. • 5. The total mass of the compound added was recorded and the solubility was obtained by calculation.

[2] = Absorption spectrum, emission spectrum and extinction coefficient in toluene solution; conditions: for Molar extinction coefficient of the toluene solution: maximum absorption peak
Method: The extinction coefficients of the compounds and their absorption and emission spectrums in the solution were determined as follows: • 1. The compound with a certain amount of substance concentration in the toluene was prepared in a volumetric flask. • 2. The absorption spectrum of the solution was measured by using an ultraviolet-visible spectrophotometer (Puxi T9s) to obtain the absorption peak wavelength. • 3. The absorbance of the maximum absorption peak divided by the amount of substance concentration is the molar extinction coefficient of the compound. • 4. The emission spectrum of the solution was measured by using a fluorescent spectroscope (Hitachi, F-4700 FL Spectrophotometer) to obtain the emission peak wavelength.

[3] = Absorption and emission spectrum in spin-coated film
Method: The absorption and emission spectrums of the compounds in the film were determined as follows: • 1. The compound with a certain concentration in the toluene was prepared. • 2. The prepared toluene solution was dropped onto a clean glass substrate. • 3. Spin-coating, and then heating at the 80° C. for 1 min. • 4. The absorption spectrum of the film was measured by using an ultraviolet-visible spectrophotometer (Puxi T9s) to obtain the absorption peak wavelength. • 5. The emission spectrum of the film was measured by using a fluorescent spectroscope (Hitachi, F-4700 FL Spectrophotometer) to obtain the emission peak wavelength.

Structure (SMILES) | Solubilities(/100 g, toluene) [1] | Absorption peak of the toluene solution [2] | Emission peak of the toluene solution [2] | Molar extinction coefficient of the toluene solution [2] | also measured
Cc1cccc(C)c1N(c1ccc(C(F)(F)F)cc1)c1cc(N(c2ccc(C(F)(F)F)cc2)c2c(C)cccc2C)c2ccc3c(N(c4ccc(C(F)(F)F)cc4)c4c(C)cccc4C)cc(N(c4ccc(C(F)(F)F)cc4)c4c(C)cccc4C)c4ccc1c2c43 [compound 12] | >4 g/100 g toluene |  |  |  | 
Cc1cc2ccccc2c(C)c1N(c1ccc(C(C)(C)C)cc1)c1cc(N(c2ccc(C(C)(C)C)cc2)c2c(C)cc3ccccc3c2C)c2ccc3c(N(c4ccc(C(C)(C)C)cc4)c4c(C)cc5ccccc5c4C)cc(N(c4ccc(C(C)(C)C)cc4)c4c(C)cc5ccccc5c4C)c4ccc1c2c43 [compound 11] | >2 g/100 g toluene |  |  |  | 
CC(C)(C)c1ccc2c(c1)c1cc(C(C)(C)C)cc3c1n2-c1cccc2c1B3c1cc3c4ccccc4c4ccccc4c3c3c4c5c6ccccc6c6ccccc6c5ccc4n-2c13 [E2] | >0.7 g/100 g toluene | 507 nm | 523 nm | 4.8 × 10^4 L · mo 1^−1 | 
CC(C)(C)c1ccc2c(c1)c1cc(C(C)(C)C)cc3c1n2-c1cc(-c2c(-c4ccccc4)cc(-c4ccccc4)cc2-c2ccccc2)cc2c1B3c1cc3c4ccccc4c4ccccc4c3c3c4c5c6ccccc6c6ccccc6c5ccc4n-2c13 [E3] | >0.7 g/100 g toluene | 512 nm | 530 nm | 6.6 × 10^4 L · mo 1^−1 | 
CC(C)c1ccc(N(c2cc(F)c(F)c(F)c2)c2cc(N(c3cc(F)c(F)c(F)c3)c3ccc(C(C)C)cc3/C=C/c3ccc(C(C)(C)C)cc3)c3ccc4c(N(c5cc(F)c(F)c(F)c5)c5ccc(C(C)C)cc5/C=C/c5ccc(C(C)(C)C)cc5)cc(N(c5cc(F)c(F)c(F)c5)c5ccc(C(C)C)cc5/C=C/c5ccc(C(C)(C)C)cc5)c5ccc2c3c54)c(/C=C/c2ccc(C(C)(C)C)cc2)c1 [compound 19] | >5 g/100 g toluene |  |  |  | 
Cc1cc2ccccc2cc1N(c1ccc(C(C)(C)C)cc1)c1cc(N(c2ccc(C(C)(C)C)cc2)c2cc3ccccc3cc2C)c2ccc3c(N(c4ccc(C(C)(C)C)cc4)c4cc5ccccc5cc4C)cc(N(c4ccc(C(C)(C)C)cc4)c4cc5ccccc5cc4C)c4ccc1c2c43 [compound 10] | >2.5 g/100 g toluene |  |  |  | 
CC(C)c1cccc(C(C)C)c1N(c1cc(C(C)(C)C)cc(C(C)(C)C)c1)c1cc(N(c2cc(C(C)(C)C)cc(C(C)(C)C)c2)c2c(C(C)C)cccc2C(C)C)c2ccc3c(N(c4cc(C(C)(C)C)cc(C(C)(C)C)c4)c4c(C(C)C)cccc4C(C)C)cc(N(c4cc(C(C)(C)C)cc(C(C)(C)C)c4)c4c(C(C)C)cccc4C(C)C)c4ccc1c2c43 [compound 7] | >20 g/100 g toluene |  |  |  | 
CCCCCCC1(CCCCCC)c2ccccc2-c2ccc(-c3ccccc3-c3ccc4c5cccc6c(-c7ccccc7-c7ccc8c(c7)C(CCCCCC)(CCCCCC)c7ccccc7-8)ccc(c7cccc3c74)c65)cc21 [comparative compound 1, reference compound] |  | 461 nm | 485 nm | 4.3 × 10^4 L · mo 1^−1 | red shift of film spectrum versus solution spectrum ([3]; film versus toluene solution): large red shift; Absorption peak of the film ([3]; spin-coated film): 464 nm; Emission peak of the film ([3]; spin-coated film): 543 nm
CC(C)c1cccc(C(C)C)c1N(c1ccc(C(C)(C)C)cc1)c1cc(N(c2ccc(C(C)(C)C)cc2)c2c(C(C)C)cccc2C(C)C)c2ccc3c(N(c4ccc(C(C)(C)C)cc4)c4c(C(C)C)cccc4C(C)C)cc(N(c4ccc(C(C)(C)C)cc4)c4c(C(C)C)cccc4C(C)C)c4ccc1c2c43 [compound 6] | >20 g/100 g toluene |  |  |  | 
